In series [1] the target is T1, Interleukin-1 receptor-associated kinase 4 (Homo sapiens, UniProt Q9NWZ3).
T1 sequence (Q9NWZ3 whole entry): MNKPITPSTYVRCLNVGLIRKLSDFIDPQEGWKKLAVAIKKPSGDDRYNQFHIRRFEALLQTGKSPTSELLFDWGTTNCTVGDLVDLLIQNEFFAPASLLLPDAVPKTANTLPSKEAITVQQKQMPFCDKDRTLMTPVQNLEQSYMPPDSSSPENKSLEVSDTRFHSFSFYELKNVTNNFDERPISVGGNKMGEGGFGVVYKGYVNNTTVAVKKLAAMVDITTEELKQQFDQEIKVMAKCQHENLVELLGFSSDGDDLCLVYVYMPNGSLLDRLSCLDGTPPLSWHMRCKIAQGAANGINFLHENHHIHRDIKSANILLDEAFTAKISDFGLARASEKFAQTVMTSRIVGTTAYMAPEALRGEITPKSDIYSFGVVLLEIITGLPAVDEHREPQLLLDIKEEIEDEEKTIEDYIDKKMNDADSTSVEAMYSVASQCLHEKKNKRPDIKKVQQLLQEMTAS
In words: Inhibition of human IRAK4 (unknown origin).

Series [2] deals with T2, Interleukin-1 receptor-associated kinase 4 (Homo sapiens) (UniProt Q9NWZ3).
T2 sequence (whole entry): T1 sequence (Q9NWZ3 whole entry)
In words: Potency index, ratio of IC50 for inhibition of IRAK4-dependent TLR4 signaling in human THP1-XBlue cells containing NF-kappaB-inducible SEAP reporter gene to IC50 for human IRAK4 (unknown origin). It is filed as cell-based.

The target of series [3] is Cytochrome P450 2D6 (Homo sapiens, UniProt P10635). The series can be described thus: Inhibition of CYP2D6 (unknown origin). Format: ADME.
Sequence of Cytochrome P450 2D6 (P10635 whole entry): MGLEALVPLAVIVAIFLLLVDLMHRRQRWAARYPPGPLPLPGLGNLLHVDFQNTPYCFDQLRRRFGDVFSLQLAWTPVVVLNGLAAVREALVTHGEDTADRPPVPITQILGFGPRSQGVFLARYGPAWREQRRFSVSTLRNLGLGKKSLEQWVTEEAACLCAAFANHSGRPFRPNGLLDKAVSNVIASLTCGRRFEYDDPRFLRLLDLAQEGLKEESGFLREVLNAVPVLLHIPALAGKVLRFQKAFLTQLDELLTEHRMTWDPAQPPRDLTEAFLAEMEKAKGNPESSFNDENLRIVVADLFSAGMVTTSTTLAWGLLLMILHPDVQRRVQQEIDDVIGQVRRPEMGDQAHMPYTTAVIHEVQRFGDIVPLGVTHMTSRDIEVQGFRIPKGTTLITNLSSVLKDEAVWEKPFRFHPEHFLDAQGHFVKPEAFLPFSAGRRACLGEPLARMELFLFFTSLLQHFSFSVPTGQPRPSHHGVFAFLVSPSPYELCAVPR
The target of series [4] is Cytochrome P450 2C9 (Homo sapiens, UniProt P11712). In words: Inhibition of CYP2C9 (unknown origin). It is filed as ADME.
Sequence of Cytochrome P450 2C9 (P11712 whole entry): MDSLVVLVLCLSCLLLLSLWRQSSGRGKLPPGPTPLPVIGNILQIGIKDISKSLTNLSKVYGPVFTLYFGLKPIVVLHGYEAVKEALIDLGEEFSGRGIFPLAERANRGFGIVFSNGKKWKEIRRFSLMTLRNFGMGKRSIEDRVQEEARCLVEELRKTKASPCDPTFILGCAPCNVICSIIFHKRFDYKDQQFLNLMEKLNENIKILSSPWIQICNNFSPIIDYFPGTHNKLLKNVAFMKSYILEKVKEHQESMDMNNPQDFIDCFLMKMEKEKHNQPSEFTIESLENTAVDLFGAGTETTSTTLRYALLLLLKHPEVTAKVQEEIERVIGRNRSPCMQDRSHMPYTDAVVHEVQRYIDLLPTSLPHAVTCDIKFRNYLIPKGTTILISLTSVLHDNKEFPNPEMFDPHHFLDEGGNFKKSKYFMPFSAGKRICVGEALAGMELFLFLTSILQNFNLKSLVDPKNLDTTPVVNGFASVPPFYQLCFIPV
Series [5] is described as follows: Apparent permeability in pig LLC-PK1 cells. Format: ADME, cell-based, Sus scrofa.
Series [6] has as its target Cytochrome P450 3A4 (Homo sapiens, UniProt P08684). In words: Inhibition of CYP3A4 (unknown origin). Format: ADME.
Series [7] has as its target T1, Interleukin-1 receptor-associated kinase 4. The series can be described thus: Inhibition of IRAK4-dependent TLR4 signaling in human THP1-XBlue cells containing NF-kappaB-inducible SEAP reporter gene assessed as inhibition of LPS-EK-induced TLR4 activation incubated at 37 degC for 1 hr by spectrophotometry. It is filed as cell-based, THP-1.
Series [8] is described as follows: Solubility in pH 7 solution. Format: physicochemical.
Series [9] concerns the target T3, Tumor necrosis factor receptor superfamily member 1A (Homo sapiens, UniProt P19438).
T3 sequence (P19438 whole entry): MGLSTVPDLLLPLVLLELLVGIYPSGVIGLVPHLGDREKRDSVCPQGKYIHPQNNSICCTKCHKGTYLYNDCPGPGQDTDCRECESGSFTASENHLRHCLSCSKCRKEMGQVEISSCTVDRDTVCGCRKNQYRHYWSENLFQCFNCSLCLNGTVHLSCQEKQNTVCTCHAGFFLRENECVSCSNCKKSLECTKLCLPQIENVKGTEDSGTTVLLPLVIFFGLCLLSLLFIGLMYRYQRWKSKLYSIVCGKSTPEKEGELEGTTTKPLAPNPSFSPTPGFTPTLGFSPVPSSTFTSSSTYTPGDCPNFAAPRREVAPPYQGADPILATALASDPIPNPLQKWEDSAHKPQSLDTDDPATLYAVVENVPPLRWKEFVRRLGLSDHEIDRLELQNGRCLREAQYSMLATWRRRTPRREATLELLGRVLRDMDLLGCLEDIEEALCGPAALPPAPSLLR
In words: Inhibition of TNFR in human THP1-XBlue cells containing NF-kappaB-inducible SEAP reporter gene assessed as inhibition of TNFalpha-induced TNFR activation incubated at 37 degC for 1 hr by spectrophotometry. It is filed as cell-based, THP-1. On the technique in general: A reporter such as luciferase makes a cellular process visible.

Series [10] deals with Receptor-type tyrosine-protein kinase FLT3 (Homo sapiens) (UniProt P36888). In words: Inhibition of FLT3 (unknown origin).
Sequence of Receptor-type tyrosine-protein kinase FLT3 (Homo sapiens) (P36888 whole entry): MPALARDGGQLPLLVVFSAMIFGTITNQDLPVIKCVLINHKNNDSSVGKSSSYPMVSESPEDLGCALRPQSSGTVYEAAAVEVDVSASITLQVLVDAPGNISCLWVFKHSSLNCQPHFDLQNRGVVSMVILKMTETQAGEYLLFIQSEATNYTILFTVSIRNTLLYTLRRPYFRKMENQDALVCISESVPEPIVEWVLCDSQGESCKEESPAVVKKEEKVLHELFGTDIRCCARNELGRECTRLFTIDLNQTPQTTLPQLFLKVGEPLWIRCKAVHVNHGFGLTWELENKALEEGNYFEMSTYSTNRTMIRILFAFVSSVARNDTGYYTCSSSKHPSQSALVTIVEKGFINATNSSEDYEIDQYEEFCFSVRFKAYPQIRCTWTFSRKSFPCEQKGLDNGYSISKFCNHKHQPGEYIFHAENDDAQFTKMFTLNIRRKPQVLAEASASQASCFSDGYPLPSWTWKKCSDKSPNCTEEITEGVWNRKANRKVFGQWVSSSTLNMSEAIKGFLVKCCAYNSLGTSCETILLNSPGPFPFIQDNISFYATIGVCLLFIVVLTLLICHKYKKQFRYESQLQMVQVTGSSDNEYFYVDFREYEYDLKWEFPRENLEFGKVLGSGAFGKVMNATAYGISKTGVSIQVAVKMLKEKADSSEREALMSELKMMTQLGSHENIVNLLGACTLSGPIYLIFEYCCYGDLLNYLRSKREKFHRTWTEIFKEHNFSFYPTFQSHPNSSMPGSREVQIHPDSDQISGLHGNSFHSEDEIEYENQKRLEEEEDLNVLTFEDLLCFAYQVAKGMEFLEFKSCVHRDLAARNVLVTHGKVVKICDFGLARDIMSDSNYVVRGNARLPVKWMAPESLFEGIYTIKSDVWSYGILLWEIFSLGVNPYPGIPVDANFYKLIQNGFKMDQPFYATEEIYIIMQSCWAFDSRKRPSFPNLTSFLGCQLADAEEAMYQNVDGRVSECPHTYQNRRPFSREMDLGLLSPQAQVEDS
Series [11] addresses Platelet-derived growth factor receptor alpha (Homo sapiens) (UniProt P16234). The series can be described thus: Inhibition of PDGFRA (unknown origin).
Series [12] concerns the target Proto-oncogene tyrosine-protein kinase receptor Ret (Homo sapiens) (UniProt P07949). The series can be described thus: Inhibition of RET (unknown origin).
The target of series [13] is Dual specificity protein kinase CLK2 (Homo sapiens) (UniProt P49760). In words: Inhibition of CLK2 (unknown origin).
Sequence of Dual specificity protein kinase CLK2 (Homo sapiens) (P49760 whole entry, looked up): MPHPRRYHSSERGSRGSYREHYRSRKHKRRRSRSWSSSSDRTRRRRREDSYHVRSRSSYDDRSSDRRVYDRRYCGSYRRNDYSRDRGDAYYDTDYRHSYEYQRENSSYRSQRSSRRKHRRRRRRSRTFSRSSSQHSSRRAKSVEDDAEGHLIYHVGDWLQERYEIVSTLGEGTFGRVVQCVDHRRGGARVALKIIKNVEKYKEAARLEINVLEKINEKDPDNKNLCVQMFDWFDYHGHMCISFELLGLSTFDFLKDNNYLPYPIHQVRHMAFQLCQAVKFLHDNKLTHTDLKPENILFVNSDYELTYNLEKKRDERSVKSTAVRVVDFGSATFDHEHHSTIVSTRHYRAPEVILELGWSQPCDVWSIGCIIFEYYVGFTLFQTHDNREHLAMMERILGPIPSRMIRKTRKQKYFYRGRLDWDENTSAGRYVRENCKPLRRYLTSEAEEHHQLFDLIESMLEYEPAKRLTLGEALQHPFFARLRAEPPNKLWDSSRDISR
Series [14] concerns the target Tyrosine-protein kinase Lck (Homo sapiens) (UniProt P06239). In words: Inhibition of LCK (unknown origin).
Series [15] deals with BDNF/NT-3 growth factors receptor (Homo sapiens) (UniProt Q16620). The series can be described thus: Inhibition of TRKB (unknown origin).
Series [16] deals with Leucine-rich repeat serine/threonine-protein kinase 2 (Homo sapiens) (UniProt Q5S007). The series can be described thus: Inhibition of LRRK2 (unknown origin).
The target of series [17] is Misshapen-like kinase 1 (Homo sapiens) (UniProt Q8N4C8). The series can be described thus: Inhibition of MINK1 (unknown origin).
Sequence of Misshapen-like kinase 1 (Homo sapiens) (Q8N4C8 whole entry, looked up): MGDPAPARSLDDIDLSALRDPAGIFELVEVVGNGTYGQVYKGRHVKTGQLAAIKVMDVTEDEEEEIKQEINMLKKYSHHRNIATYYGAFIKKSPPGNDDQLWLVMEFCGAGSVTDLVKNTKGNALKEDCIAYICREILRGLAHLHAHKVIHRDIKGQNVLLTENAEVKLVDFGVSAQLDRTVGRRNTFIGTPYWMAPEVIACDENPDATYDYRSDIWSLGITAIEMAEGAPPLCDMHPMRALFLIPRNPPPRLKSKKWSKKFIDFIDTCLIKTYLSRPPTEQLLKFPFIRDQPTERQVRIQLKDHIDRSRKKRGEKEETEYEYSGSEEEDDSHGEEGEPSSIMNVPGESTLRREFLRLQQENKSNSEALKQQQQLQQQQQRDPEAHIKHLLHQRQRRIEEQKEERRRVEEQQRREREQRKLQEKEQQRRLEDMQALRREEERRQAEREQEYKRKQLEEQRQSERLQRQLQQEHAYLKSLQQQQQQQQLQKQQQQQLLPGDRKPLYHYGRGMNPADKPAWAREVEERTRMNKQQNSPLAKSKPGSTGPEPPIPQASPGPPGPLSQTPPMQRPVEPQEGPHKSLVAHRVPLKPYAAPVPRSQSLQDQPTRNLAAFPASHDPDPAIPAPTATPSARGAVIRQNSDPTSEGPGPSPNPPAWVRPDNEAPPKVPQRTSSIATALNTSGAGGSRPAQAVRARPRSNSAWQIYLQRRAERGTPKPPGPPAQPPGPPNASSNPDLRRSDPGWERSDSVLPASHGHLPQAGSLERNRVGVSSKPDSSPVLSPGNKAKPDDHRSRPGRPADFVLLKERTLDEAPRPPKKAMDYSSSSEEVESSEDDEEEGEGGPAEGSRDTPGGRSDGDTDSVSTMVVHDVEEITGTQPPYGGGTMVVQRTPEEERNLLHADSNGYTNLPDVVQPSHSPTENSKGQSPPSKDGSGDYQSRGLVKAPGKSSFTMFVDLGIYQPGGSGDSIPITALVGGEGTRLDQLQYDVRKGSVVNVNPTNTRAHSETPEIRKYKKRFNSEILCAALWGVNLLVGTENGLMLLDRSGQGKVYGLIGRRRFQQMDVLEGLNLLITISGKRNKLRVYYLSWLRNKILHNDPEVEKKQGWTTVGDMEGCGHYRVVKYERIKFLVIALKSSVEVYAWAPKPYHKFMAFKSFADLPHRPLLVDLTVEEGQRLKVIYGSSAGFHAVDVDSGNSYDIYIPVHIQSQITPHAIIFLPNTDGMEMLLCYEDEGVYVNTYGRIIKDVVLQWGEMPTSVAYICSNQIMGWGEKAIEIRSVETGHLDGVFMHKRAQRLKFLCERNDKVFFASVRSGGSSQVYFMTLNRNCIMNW

Each structure is given as a SMILES string. Values after ≈ are worked out from the molar mass of the structure shown. Active and inactive are the calls of the source. The calls are words filed in the database; no cut-off is given here. Bounds are passed on as bounds.

18 compounds from ChEMBL document CHEMBL3600286, “Initial optimization and series evolution of diaminopyrimidine inhibitors of interleukin-1 receptor associated kinase 4” (Bioorg Med Chem Lett, 2015) can be followed below.

What is called IC50 is the midpoint of a concentration-inhibition curve. What is called Papp is a coefficient for how fast a substance crosses the barrier. One may read the solubility as the concentration that dissolves in the medium under given conditions.

Sequence of Cytochrome P450 3A4 (P08684 whole entry): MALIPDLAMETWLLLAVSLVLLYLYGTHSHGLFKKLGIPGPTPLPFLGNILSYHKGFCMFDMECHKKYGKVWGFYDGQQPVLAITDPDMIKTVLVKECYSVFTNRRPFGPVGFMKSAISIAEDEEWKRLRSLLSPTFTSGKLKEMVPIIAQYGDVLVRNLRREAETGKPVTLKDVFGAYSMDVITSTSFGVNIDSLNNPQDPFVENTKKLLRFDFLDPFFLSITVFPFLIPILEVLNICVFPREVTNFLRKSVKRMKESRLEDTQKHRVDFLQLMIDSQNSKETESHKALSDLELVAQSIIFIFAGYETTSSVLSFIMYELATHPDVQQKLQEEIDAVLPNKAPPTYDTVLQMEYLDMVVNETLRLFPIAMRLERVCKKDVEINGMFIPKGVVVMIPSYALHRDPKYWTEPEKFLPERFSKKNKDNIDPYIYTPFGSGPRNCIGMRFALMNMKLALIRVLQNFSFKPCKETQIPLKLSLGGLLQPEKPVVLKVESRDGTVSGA
Sequence of Tyrosine-protein kinase Lck (Homo sapiens) (P06239 2-509 limits assumed): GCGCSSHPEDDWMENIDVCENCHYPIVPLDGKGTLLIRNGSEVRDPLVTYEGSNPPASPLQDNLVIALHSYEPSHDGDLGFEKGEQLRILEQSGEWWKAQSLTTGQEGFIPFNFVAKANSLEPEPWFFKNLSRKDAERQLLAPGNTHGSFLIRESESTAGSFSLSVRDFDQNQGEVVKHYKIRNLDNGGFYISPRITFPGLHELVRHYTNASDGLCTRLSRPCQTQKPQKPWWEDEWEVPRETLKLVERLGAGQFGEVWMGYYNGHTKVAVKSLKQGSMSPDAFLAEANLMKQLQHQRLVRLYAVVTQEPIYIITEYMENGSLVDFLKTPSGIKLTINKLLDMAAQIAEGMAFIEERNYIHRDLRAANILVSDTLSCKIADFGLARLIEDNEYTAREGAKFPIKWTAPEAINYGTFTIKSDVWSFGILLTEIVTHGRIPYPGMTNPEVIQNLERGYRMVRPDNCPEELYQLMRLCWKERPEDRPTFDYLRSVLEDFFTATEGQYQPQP

In series [1], `COc1cc(Nc2ncc(-n3cccn3)c(N[C@@H]3C[C@H](CO)[C@@H](O)[C@H]3O)n2)ccn1` came in with an IC50 of 6010 nM.
The same measure, in the same setting: in the case of `OC[C@H]1C[C@@H](Nc2nc(Nc3ccncc3)ncc2-c2nccs2)[C@H](O)[C@@H]1O` it was greater than 20000 nM.
With `Cc1cc(Nc2ncc(-c3nc(-c4ccccc4)cs3)c(N[C@@H]3C[C@H](CO)[C@@H](O)[C@H]3O)n2)ccn1`, the IC50 was 11 nM in series [1]; greater than 50000 nM in [3]; greater than 50000 nM in [4]; greater than 50000 nM in [6]; 94 nM in series [7]; greater than 31000 nM in series [9]. Also, the Ratio IC50 in [2] was 10. The Papp in series [5] was greater than 15 ×10⁻⁶ cm/s. The compound also gave a solubility in series [8] of 19 µM (≈ 9.32 µg/mL).
As to `CC(C)Oc1cc(Nc2ncc(-c3ccc4ccccc4n3)c(N[C@@H]3C[C@H](CO)[C@@H](O)[C@H]3O)n2)ccn1`, in [2], the Ratio IC50 was 10. For the same compound, the IC50 is greater than 50000 nM in series [3]; greater than 50000 nM in [4]; greater than 50000 nM in series [6]; 216 nM in series [7]; greater than 31000 nM in [9]. Further, the Papp in series [5] was greater than 15 ×10⁻⁶ cm/s. For the same compound, the concentration in solution in [8] (solubility) was 23 µM (≈ 11.6 µg/mL).
Regarding `COc1cc(Nc2ncc(-c3ccc4ccccc4n3)c(N[C@@H]3C[C@H](CO)[C@@H](O)[C@H]3O)n2)ccn1`, the Ratio IC50 in series [2] is 10. Besides, the IC50 is greater than 50000 nM in series [3]; greater than 50000 nM in series [4]; greater than 50000 nM in [6]; 25 nM in [7]; greater than 31000 nM in series [9]. The apparent permeability coefficient (Papp) in [5] is greater than 15 ×10⁻⁶ cm/s. In addition, the concentration in solution in series [8] (solubility) was 22 µM (≈ 10.4 µg/mL).
Consider `Cc1cc(Nc2cc(N[C@@H]3C[C@H](CO)[C@@H](O)[C@H]3O)c(-c3nc4ccccc4s3)cn2)cc(C)n1`, for which the IC50 is 14 nM in series [1]; greater than 50000 nM in series [3]; greater than 50000 nM in series [4]; greater than 50000 nM in series [6]; 3450 nM in [7]; greater than 31000 nM in [9]. For the same compound, the inhibition entry in series [10], in series [11], in series [12] and in series [13] was “Active” in each case. Besides, the Ratio IC50 in [2] is greater than 240. Further, in series [5], the Papp worked out at 2 ×10⁻⁶ cm/s. For the same compound, the solubility in series [8] is less than 4 µM.
As to `Cc1cc(Nc2ncc(-c3ccc4ccccc4n3)c(N[C@@H]3C[C@H](CO)[C@@H](O)[C@H]3O)n2)cc(C)n1`, the inhibition result in series [14], in [15], in series [16], in series [10], in series [17] and in [13] was “Active” throughout. In addition, the IC50 was 0.74 nM in [1]; greater than 50000 nM in [3]; greater than 50000 nM in series [4]; greater than 50000 nM in series [6]; 55 nM in series [7]; greater than 31000 nM in series [9]. Besides, the Ratio IC50 in series [2] came to 10. Besides, the Papp in series [5] is greater than 15 ×10⁻⁶ cm/s. In series [8], this compound returned a solubility of 72 µM (≈ 34 µg/mL).
As for `Cc1cc(Nc2ncc(-c3nc(-c4ccccc4)cs3)c(N[C@@H]3C[C@H](CO)[C@@H](O)[C@H]3O)n2)cc(C)n1`, the IC50 in series [1] was 4 nM; in [3] it was greater than 50000 nM; in series [4], greater than 50000 nM; in [6], greater than 50000 nM; in series [7], 87 nM; in series [9], greater than 31000 nM. Also, the inhibition entry in [15], in series [16], in series [10] and in [17] was “Active” throughout. Further, the Ratio IC50 in [2] was determined as 10. In addition, the apparent permeability coefficient (Papp) in [5] is greater than 15 ×10⁻⁶ cm/s. Moreover, in series [8], the concentration in solution (solubility) came to 17 µM (≈ 8.58 µg/mL).
As for `Cc1cc(Nc2ncc(-c3cncs3)c(N[C@@H]3C[C@H](CO)[C@@H](O)[C@H]3O)n2)cc(C)n1`, in series [1], the IC50 stood at 2110 nM.
In series [1], `Cc1cc(Nc2ncc(-c3nc4ccncc4s3)c(N[C@@H]3C[C@H](CO)[C@@H](O)[C@H]3O)n2)ccn1` registered an IC50 of 12 nM.
As to `OC[C@H]1C[C@@H](Nc2nc(NC3CC3)ncc2-c2nc3cnccc3s2)[C@H](O)[C@@H]1O`, in [1], half-maximal inhibition (IC50) required 647 nM.
Regarding `OC[C@H]1C[C@@H](Nc2nc(Nc3ccnc(OC4CC4)c3)ncc2-c2ccc3ccccc3n2)[C@H](O)[C@@H]1O`, the concentration for half-maximal inhibition (IC50) in [1] is 44 nM; in series [3] it was greater than 50000 nM; in [4], greater than 50000 nM; in [6] it was greater than 50000 nM; in series [7], 341 nM; in [9], greater than 31000 nM. Also, the Ratio IC50 in series [2] was found to be 10. In [5], the apparent permeability coefficient (Papp) was greater than 15 ×10⁻⁶ cm/s. This compound also gave a solubility in series [8] of 31 µM (≈ 15.5 µg/mL).
Turning to `Cc1cc(Nc2ncc(-n3cccn3)c(N[C@@H]3C[C@H](CO)[C@@H](O)[C@H]3O)n2)cc(C)n1`, the half-inhibitory concentration (IC50) in [1] amounted to 932 nM.
With `OC[C@H]1C[C@@H](Nc2nc(Nc3cccnc3)ncc2-c2nc3ccncc3s2)[C@H](O)[C@@H]1O`, the midpoint of inhibition in series [1], the IC50, lay at 18 nM.
For the compound `COc1cc(Nc2ncc(-c3nc(-c4ccccc4)cs3)c(N[C@@H]3C[C@H](CO)[C@@H](O)[C@H]3O)n2)ccn1`, in series [1], the 50% inhibitory concentration (IC50) amounted to 89 nM.
On the same count and under the same terms, to `Cc1cc(Nc2ncc(-c3cscn3)c(N[C@@H]3C[C@H](CO)[C@@H](O)[C@H]3O)n2)cc(C)n1` belongs 852 nM; to `OC[C@H]1C[C@@H](Nc2nc(Nc3cncnc3)ncc2-c2nc3cnccc3s2)[C@H](O)[C@@H]1O`, 12 nM.
Still for that read-out and setting: in the case of `OC[C@H]1C[C@@H](Nc2nc(Nc3cccnc3)ncc2-c2nc3cnccc3s2)[C@H](O)[C@@H]1O` it was 11 nM.
